Target: T1, hT1R1/hT1R3 umami receptor expressed in an HEK293 cell line (Homo sapiens, UniProt Q7RTX0+Q7RTX1)
T1 construct: expressed in transfected cells; host or cells: HEK293 derivative, clone I-17, expression induced with mifepristone
T1 sequence (Q7RTX1 21-841): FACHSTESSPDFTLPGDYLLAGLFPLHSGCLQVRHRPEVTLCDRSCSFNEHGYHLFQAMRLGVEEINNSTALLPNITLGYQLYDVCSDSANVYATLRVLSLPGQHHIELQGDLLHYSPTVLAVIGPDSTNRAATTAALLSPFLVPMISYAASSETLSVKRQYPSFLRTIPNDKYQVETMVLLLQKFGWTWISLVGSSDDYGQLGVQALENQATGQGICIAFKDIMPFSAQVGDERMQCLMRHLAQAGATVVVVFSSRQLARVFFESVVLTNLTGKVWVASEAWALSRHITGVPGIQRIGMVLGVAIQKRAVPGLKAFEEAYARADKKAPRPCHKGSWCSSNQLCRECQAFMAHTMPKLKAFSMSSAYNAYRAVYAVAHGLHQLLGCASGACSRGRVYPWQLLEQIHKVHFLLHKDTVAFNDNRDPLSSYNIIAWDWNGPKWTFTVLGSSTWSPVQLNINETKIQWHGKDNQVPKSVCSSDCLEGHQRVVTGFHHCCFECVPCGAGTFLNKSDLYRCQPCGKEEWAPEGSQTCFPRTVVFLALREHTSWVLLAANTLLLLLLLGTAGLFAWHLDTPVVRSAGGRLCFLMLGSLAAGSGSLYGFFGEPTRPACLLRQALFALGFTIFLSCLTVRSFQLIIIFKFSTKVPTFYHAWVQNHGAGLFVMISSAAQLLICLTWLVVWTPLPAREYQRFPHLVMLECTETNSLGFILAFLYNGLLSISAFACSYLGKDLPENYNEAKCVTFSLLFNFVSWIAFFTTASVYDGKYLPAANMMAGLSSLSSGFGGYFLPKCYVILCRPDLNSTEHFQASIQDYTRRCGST
T1 sequence (Q7RTX0 21-852): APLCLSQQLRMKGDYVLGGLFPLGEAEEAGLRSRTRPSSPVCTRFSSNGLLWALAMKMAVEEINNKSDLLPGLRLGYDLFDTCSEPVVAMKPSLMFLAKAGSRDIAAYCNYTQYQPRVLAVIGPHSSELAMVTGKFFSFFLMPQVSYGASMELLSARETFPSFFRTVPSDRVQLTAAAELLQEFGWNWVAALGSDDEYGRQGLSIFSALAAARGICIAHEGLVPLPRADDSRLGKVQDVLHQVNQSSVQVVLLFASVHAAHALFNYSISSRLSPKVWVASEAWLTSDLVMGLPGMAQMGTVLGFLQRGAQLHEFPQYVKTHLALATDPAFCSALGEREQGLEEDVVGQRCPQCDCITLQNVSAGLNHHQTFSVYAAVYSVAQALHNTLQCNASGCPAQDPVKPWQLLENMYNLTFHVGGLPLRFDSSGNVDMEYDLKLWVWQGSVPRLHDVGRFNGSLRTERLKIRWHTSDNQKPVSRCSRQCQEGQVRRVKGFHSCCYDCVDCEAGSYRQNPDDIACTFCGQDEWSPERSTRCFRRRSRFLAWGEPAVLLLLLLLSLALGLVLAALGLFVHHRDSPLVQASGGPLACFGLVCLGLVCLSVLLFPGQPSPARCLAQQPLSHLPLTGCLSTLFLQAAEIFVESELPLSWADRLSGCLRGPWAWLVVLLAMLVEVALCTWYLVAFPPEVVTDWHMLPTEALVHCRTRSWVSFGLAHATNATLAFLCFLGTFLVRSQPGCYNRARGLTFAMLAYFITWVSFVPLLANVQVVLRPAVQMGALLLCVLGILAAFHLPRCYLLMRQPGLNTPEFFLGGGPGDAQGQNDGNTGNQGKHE
Assay: In vitro hT1R1/hT1R3 umami taste receptor activation assay (FLIPR, dose response)
Type: cell-based
Conditions: read-out: EC50 for activation of a hT1R1/hT1R3 umami receptor expressed in an HEK293 cell line
Text: In order to identify new savory flavoring agents and enhancers, including compounds with savory agonist and enhancer activities (dual activity), the tastant compounds of Formula (I) were screened in primary assays and secondary assays including compound dose response and enhancement assay. In a primary assay for potential ability to modulate umami taste, tastant compounds of Formula (I) that can be either savory flavoring agents in their own right or flavor enhancers of MSG are identified and scores of their activities are given as percentage of the maximum MSG intensity (%). In compound dose response, an EC50 is calculated to reflect the potency of the compound as a savory agonist or enhancer.
An HEK293 cell line derivative (see e.g., Chandrashekar, et al., Cell (2000) 100: 703-711) which stably expresses Gα15 and hT1R1/hT1R3 under an inducible promoter (see WO 03/001876 A2) was used to identify compounds with savory tasting properties.
Compounds disclosed in this application were initially selected based on their activity on the hT1R1/hT1R3-HEK293-Gα15 cell line. Activity was determined using an automated fluorometric imaging assay on a FLIPR instrument (Fluorometric Intensity Plate Reader, Molecular Devices, Sunnyvale, Calif.) (designated FLIPR assay). Cells from one clone (designated clone I-17) were seeded into 384-well plates (at approximately 48,000 cells per well) in a medium containing Dulbecco's modified Eagle's medium (DMEM) supplemented with GlutaMAX (Invitrogen, Carlsbad, Calif.), 10% dialyzed fetal bovine serum (Invitrogen, Carlsbad, Calif.), 100 Units/ml Penicillin G, 100 μg/ml Streptomycin (Invitrogen, Carlsbad, Calif.) and 60 pM mifepristone (to induce expression of hT1R1/hT1R3, (see WO 03/001876 A2). I-17 cells were grown for 48 hours at 37° C. I-17 cells were then loaded with the calcium dye Fluo-3AM (Molecular Probes, Eugene, Oreg.), 4 μM in a phosphate buffered saline (D-PBS) (Invitrogen, Carlsbad, Calif.), for 1.5 hours at room temperature. After replacement with 25 μl D-PBS, stimulation was performed in the FLIPR instrument and at room temperature by the addition of 25 μl D-PBS supplemented with different stimuli at concentrations corresponding to twice the desired final level. Receptor activity was quantified by determining the maximal fluorescence increases (using a 480 nm excitation and 535 nm emission) after normalization to basal fluorescence intensity measured before stimulation.
(§1) For dose-responses analysis, stimuli were presented in duplicates at 10 different concentrations ranging from 1.5 nM to 30 μM. Activities were normalized to the response obtained with 60 mM monosodium glutamate, a concentration that elicits maximum receptor response. EC50s (concentration of compound that causes 50% activation of receptor) were determined using a non-linear regression algorithm, where the Hill slope, bottom asymptotes and top asymptotes were allow to vary. Identical results were obtained when analyzing the dose-response data using commercially available software for non-linear regression analysis such as GraphPad PRISM (San Diego, Calif.).

SMILES	EC50
CCOc1ccc(NC(=S)NCCc2ccccn2)cc1 [Example 2]	0.55 µM

Same assay, conditions: read-out: Umami EC50

SMILES	EC50
S=C(NCCc1ccccn1)Nc1ccccc1OCc1ccccc1 [Example A1]	1.31 µM
CC(C)c1ccc(NC(=S)NCCc2ccccn2)cc1 [Example A2]	1.43 µM
CC(C)(C)c1ccc(NC(=S)NCCc2ccccn2)cc1 [Example A3]	1.92 µM
CCc1ccc(NC(=S)NCCc2ccccn2)cc1 [Example A4]	1.37 µM
CSc1ccc(NC(=S)NCCc2ccccn2)cc1 [Example A5]	3.26 µM
COc1ccc(C(=O)CC(SCO)c2ccc(Cl)cc2)cc1 (stereo not shown) [Example A10]	6.05 µM
CCOC(=O)COc1ccc(S(=O)(=O)Nc2ccc3c(c2)OCO3)cc1 [Example A14]	14.4 µM
CSc1ccccc1NC(=S)NC1CCCCC1C (stereo not shown) [Example A15]	3 µM
CC(C)(C)c1ccc(NC(=S)NCc2ccccn2)cc1 [Example A16]	3.71 µM
CCCCC(C)NC(=S)NC1CCCc2ccccc21 (stereo not shown) [Example A18]	7.88 µM
CC1CCCCC1NC(=S)Nc1ccc2c(c1)OCO2 (stereo not shown) [Example A19]	13.4 µM
Cc1cc(CNC(=S)Nc2ccc(OC(C)C)cc2)no1 [Example A20]	11 µM
CC(C)Oc1ccc(NC(=S)NCc2ncc[nH]2)cc1 [Example A21]	14.5 µM
O=C(OCc1ccccn1)c1ccc(COc2cccc3ccccc23)cc1 [Example A22]	3.87 µM

Target: T2, hT1R2/hT1R3 sweet receptor expressed in an HEK293 cell line (Homo sapiens, UniProt Q7RTX0+Q8TE23)
T2 construct: expressed in transfected cells; host or cells: HEK293 derivative, clone S-9
T2 sequence (Q8TE23 20-839): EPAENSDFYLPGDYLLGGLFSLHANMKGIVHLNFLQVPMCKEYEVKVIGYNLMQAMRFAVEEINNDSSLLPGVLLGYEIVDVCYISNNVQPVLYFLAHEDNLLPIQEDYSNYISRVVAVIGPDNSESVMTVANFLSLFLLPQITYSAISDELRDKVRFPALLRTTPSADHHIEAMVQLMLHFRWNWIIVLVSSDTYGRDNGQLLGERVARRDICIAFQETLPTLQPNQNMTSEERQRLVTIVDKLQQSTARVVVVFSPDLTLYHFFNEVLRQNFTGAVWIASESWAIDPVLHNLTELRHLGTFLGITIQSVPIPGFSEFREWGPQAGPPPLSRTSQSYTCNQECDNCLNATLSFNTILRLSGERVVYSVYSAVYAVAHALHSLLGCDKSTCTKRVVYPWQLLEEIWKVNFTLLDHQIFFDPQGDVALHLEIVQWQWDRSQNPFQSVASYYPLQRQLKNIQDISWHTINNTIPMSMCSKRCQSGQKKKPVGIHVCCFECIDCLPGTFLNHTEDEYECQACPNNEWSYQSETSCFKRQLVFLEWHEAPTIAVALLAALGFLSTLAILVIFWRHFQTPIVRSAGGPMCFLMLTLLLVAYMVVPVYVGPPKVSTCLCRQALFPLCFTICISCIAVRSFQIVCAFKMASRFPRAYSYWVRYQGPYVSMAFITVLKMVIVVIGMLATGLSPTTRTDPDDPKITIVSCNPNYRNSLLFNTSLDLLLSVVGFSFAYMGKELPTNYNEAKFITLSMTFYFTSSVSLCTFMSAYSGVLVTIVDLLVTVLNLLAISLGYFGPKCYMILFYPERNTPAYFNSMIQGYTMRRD
T2 sequence (Q7RTX0 21-852): T1 sequence (Q7RTX0 21-852)
Assay: In vitro hT1R2/hT1R3 sweet taste receptor activation assay (FLIPR, dose response)
Type: cell-based
Conditions: read-out: Sweet EC50
Text: An HEK293 cell line derivative (see Chandrashekar, J., Mueller, K. L., Hoon, M. A., Adler, E., Feng, L., Guo, W., Zuker, C. S., Ryba, N. J.,. Cel,l 2000, 100, 703-711.) that stably expresses Gα15 and hT1R2/hT1R3 (see Li, X., Staszewski, L., Xu, H., Durick, K., Zoller, M., Adler, E. Proc Natl Acad Sci USA 2002, 99, 4692-4696, and PCT Publication No. WO 03/001876) was used to identify compounds with sweet taste enhancing properties. These references are hereby incorporated herein by reference for their methods of preparing and maintaing the cell lines discussed below, and for their methods for screeing compounds that inhibit the biological receptors.
Compounds covered in this document were initially selected based on their activity on the hT1R2/hT1R3—HEK293-Gα15 cell line (Li, et al. vide supra). Activity was determined using an automated fluorometric imaging assay on a FLIPR instrument (Fluorometric Intensity Plate Reader, Molecular Devices, Sunnyvale, Calif.) (designated FLIPR assay). Cells from one clone (designated S-9 cells) were seeded into 384-well plates (at approximately 50,000 cells per well) in a medium containing DMEM Low Glucose (Invitrogen, Carlsbad, Calif.), 10% dialyzed fetal bovine serum (Invitrogen, Carlsbad, Calif.), 100 Units/ml Penicillin G, and 100 μg/ml Streptomycin (Invitrogen, Carlsbad, Calif.) (Li, et al. vide supra) see also World Patent No. WO 03/001876 A2). S-9 cells were grown for 24 hours at 37° C. S-9 cells were then loaded with the calcium dye Fluo-3AM (Molecular Probes, Eugene, Oreg.), 4 μM in a phosphate buffered saline (D-PBS) (Invitrogen, Carlsbad, Calif.), for 1 hour at room temperature. After replacement with 25 μl D-PBS, stimulation was performed in the FLIPR instrument and at room temperature by the addition of 25 μl D-PBS supplemented with different stimuli at concentrations corresponding to twice the desired final level. Receptor activity was quantified by determining the maximal fluorescence increases (using a 480 nm excitation and 535 nm emission) after normalization to basal fluorescence intensity measured before stimulation.
as §1, with “60” for “1.5”, “400” for “60”, “D-fructose,” for “monosodium glutamate,”, “EC50s” for “EC50s (concentration of compound that causes 50% activation of receptor)”, “algorithm (using a Senomyx, Inc. software),” for “algorithm,”

SMILES	EC50
S=C(NCc1ccoc1)Nc1ccc2c(c1)OCO2 [Example B40]	11.6 µM
CC(C)Oc1ccc(NC(=S)NCc2ccncc2)cc1 [Example B41]	14.2 µM
O=S(=O)(NCc1ccncc1)c1ccc(F)cc1 [Example B42]	6.5 µM
Cc1cc(C)c(S(=O)(=O)NCc2ccncc2)c(C)c1 [Example B43]	0.76 µM
CCOc1ccc(S(=O)(=O)NCc2ccncc2)cc1 [Example B44]	0.93 µM
COc1c(S(=O)(=O)NCc2ccncc2)ccc(Cl)c1Cl [Example B45]	2.18 µM
CCCCOc1ccc(S(=O)(=O)Nc2cccnc2)cc1 [Example B46]	2.19 µM
COc1ccc(S(=O)(=O)Nc2ccc3nn(C)cc3c2)cc1 [Example B47]	2.94 µM
COC(=O)COc1ccc(S(=O)(=O)Nc2ccc3c(c2)OCCO3)cc1 [Example B48]	7.97 µM
COc1ccc(Cl)cc1S(=O)(=O)NCc1ccco1 [Example B49]	8 µM
